Measurements taken from PMC5571287 (Antimicrobial Agents and Chemotherapy, 2017).
Read-outs that look alike come from different tables or passages of the source.

How the values were obtained:
[1] = target: minigenome construct comprising the L protein, M2-1, N, and P of RSV A2 (Human respiratory syncytial virus A, UniProt P28887); experiment: cell-based
[2] = tested on: RSV A2; experiment: CPE assay, RSV A2 in HEp-2 cells (resazurin); format: cell-based, respiratory syncytial virus; conditions: for IC50: read-out: RSV A2 IC50; for IC90: read-out: RSV A2 IC90
[3] = tested on: Wild type RSVA2 (vehicle control virus); experiment: CPE assay, vehicle control (wild type) RSV A2 virus; conditions: for IC50: read-out: Wild type RSVA2 IC50; for IC90: read-out: Wild type RSVA2 IC90
[4] = tested on: RSV B WST; experiment: CPE assay, RSV B Washington in HEp-2 cells (resazurin); format: cell-based, respiratory syncytial virus
[5] = tested on: PC786 escape mutant (Y1631H) of RSV A2; format: cell-based, respiratory syncytial virus; conditions: for IC50: read-out: PC786 escape mutant IC50, N=3, after 6th passage; for IC50 / IC90: CPE; for IC90: read-out: PC786 escape mutant IC90, N=3; for activity on CPE of the PC786 escape mutant, in words: vs wild type
[6] = tested on: RSV A2; experiment: Time-of-addition assay and MOI dependency, CPE (methylene blue) in HEp-2; format: cell-based; conditions: human respiratory syncytial virus
[7] = in vitro; conditions: human
[8] = tested on: RSV A2; experiment: RSV F protein cell-based ELISA in BEAS-2B cells, washout / nonwashout; conditions: human respiratory syncytial virus, read-out: IC50, F protein expressed on cell surfaces
Protocol: Approximately 72 h after BEAS-2B cells were seeded in 96-well plates (at 4 × 10^4/ml; 100 μl/well), the medium in the plates was removed and replaced with 200 μl of fresh LHC-8 medium. […] For nonwashout plates, the compounds and DMSO (1 μl/well) were applied immediately after infection. On day 3 postinfection, supernatant was aspirated and the cells were fixed with 4% formaldehyde (100 μl in PBS solution) for 20 min at room temperature (RT), washed three times with wash buffer (WB) (200 μl; PBS containing 0.05% Tween 20), and incubated with blocking buffer (100 μl; 5% bovine serum albumin [BSA] in wash buffer) for 1 h. […] Abcam plc, Cambridge, UK). After a washing, cells were incubated with a horseradish peroxidase (HRP)-conjugated anti-mouse IgG antibody (50 μl/well; 1:2,000, Abcam) for 1 h. Tetramethylbenzidine (TMB) substrate (50 μl) was then added after two washings with WB and one with PBS, and the reaction was stopped by the addition of aqueous sulfuric acid (2 N; 50 μl/well). The resultant signal was determined colorimetrically (OD at 450 nm [OD450] with a reference wavelength of 655 nm) in a microplate reader (Multiskan FC; Thermo Fisher Scientific). Cells were then washed, and 0.5% crystal violet solution ([…]) was applied for 30 min. […] The measured F protein signals (OD450 − OD655 readings) were corrected for cell number (OD595 readings) by dividing the OD450–655 by the OD595 readings.

[9] = tested on: RSV A 1997/12-35; experiment: CPE 1, resazurin 384-well CPE assay in HEp-2; format: cell-based; conditions: human respiratory syncytial virus
Protocol: (§1) For known clinical strains (RSV A 1997/12-35, 2001/2-20, 200/3-4, and Memphis 37), a 384-well-format resazurin-based CPE assay was conducted.

[10] = tested on: RSV A 2001/2-20; experiment: CPE 1, resazurin 384-well CPE assay in HEp-2; format: cell-based; conditions: human respiratory syncytial virus
Protocol: as §1

[11] = tested on: RSV A 2000/3-4; experiment: CPE 1, resazurin 384-well CPE assay in HEp-2; format: cell-based; conditions: human respiratory syncytial virus
Protocol: as §1

[12] = tested on: RSV A Memphis 37c; experiment: CPE 1, resazurin 384-well CPE assay in HEp-2; format: cell-based; conditions: human respiratory syncytial virus
Protocol: as §1

[13] = Cell viability in HEp-2 cells (resazurin); conditions: human, HEp-2 cells
[14] = tested on: RSV A 2001/3-12; experiment: CPE 2, neutral red 96-well CPE assay in HEp-2; format: cell-based; conditions: human respiratory syncytial virus
Protocol: (§2) For RSV A 2001/3-12, 1998/3-2, and USU⃥v1225, CPE was induced in HEp-2 cells for 7 days and the plates were then stained with neutral red dye for approximately 2 h. The intracellular incorporated dye was extracted in 50:50 Sorensen citrate buffer-ethanol and the absorbance read on a spectrophotometer. The optical density (OD) of test wells was converted to percentage of cell and virus controls. […] The virus inocula were ∼63 50% cell culture infectious doses (CCID50) per well for 2001/3-12, ∼40 CCID50/well for 1998/3-2, and ∼32 CCID50/well for USU\v1225. This assay was conducted in Utah State University (Logan, UT).

[15] = tested on: RSV A USU\v1225; experiment: CPE 2, neutral red 96-well CPE assay in HEp-2; format: cell-based; conditions: human respiratory syncytial virus
Protocol: as §2

[16] = tested on: RSV A 1998/3-2; experiment: CPE 2, neutral red 96-well CPE assay in HEp-2; format: cell-based; conditions: human respiratory syncytial virus
Protocol: as §2

[17] = CPE, HEp-2, n = 3, added with virus infection, ALS-8112 24 h prior
[18] = human respiratory syncytial virus, HEp-2
[19] = human respiratory syncytial virus

Chain of minigenome construct comprising the L protein, M2-1, N, and P of RSV A2 (P28887 whole entry): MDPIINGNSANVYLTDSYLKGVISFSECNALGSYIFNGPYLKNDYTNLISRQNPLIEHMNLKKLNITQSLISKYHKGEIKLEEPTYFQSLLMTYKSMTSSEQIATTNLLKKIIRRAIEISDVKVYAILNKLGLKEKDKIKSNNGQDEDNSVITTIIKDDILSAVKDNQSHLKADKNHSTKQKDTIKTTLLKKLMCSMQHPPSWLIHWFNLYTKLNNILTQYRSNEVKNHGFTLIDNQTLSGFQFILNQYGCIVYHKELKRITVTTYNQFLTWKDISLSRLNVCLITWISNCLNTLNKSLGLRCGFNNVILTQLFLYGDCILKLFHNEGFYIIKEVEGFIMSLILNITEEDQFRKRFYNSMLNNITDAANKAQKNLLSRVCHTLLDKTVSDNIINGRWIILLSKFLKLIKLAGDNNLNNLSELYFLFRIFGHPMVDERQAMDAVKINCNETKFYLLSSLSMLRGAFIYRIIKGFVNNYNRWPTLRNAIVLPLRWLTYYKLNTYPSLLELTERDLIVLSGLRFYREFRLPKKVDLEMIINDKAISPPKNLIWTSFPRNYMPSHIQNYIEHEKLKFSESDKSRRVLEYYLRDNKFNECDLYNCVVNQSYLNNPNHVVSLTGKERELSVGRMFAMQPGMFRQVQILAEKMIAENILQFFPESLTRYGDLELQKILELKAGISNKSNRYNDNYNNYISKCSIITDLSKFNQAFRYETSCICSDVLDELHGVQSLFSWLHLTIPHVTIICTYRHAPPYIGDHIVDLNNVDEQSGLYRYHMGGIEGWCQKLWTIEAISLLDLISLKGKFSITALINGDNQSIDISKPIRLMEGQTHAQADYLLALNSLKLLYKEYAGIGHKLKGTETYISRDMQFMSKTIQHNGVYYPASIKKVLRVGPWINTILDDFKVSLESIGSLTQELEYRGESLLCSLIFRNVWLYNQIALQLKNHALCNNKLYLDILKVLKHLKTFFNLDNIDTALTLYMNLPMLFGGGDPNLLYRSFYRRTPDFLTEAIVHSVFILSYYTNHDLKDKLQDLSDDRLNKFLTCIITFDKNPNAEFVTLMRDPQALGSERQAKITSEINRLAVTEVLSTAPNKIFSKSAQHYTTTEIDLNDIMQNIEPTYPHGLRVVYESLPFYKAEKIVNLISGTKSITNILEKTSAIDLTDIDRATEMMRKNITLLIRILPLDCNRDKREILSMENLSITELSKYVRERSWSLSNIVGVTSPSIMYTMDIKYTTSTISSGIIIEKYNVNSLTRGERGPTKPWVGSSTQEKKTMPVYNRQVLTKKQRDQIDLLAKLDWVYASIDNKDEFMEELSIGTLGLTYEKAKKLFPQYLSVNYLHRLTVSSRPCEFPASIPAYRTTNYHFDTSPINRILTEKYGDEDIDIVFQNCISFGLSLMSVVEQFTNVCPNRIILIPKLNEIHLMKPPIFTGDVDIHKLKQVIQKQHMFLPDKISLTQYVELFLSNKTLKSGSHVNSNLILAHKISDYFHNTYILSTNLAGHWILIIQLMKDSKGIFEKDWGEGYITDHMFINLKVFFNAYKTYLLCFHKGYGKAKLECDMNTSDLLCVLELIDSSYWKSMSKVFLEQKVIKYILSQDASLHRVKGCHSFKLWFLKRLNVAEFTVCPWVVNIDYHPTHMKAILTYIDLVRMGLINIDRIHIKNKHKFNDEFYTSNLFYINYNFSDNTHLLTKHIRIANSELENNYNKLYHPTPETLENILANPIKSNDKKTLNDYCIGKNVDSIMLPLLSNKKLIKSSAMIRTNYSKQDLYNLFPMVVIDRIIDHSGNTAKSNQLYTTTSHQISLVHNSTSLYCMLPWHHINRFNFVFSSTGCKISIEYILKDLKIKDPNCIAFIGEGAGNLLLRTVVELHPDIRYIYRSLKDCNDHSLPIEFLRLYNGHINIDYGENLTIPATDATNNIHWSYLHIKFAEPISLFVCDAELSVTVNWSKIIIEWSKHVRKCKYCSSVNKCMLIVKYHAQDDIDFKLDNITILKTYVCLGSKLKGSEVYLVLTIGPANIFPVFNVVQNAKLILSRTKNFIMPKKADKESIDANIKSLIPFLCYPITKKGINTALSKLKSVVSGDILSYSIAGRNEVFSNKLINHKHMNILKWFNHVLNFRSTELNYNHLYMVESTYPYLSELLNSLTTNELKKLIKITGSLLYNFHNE
Chain of minigenome construct comprising the L protein, M2-1, N, and P of RSV A2 (P03421 whole entry, further chain): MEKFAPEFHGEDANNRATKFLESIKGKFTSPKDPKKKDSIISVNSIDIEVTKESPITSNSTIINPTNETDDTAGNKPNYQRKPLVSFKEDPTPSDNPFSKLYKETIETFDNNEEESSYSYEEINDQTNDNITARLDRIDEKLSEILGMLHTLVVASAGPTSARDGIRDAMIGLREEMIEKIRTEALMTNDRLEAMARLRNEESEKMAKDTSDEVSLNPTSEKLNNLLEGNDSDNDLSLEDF

For `COc1ccc(CCNCCCN2C(=O)c3c(cc(N)c4[nH]c(-c5ccc(C)c([N+](=O)[O-])c5)nc34)C(C)(C)C2=O)cc1OC` [BI compound D], the IC50 [1] was 55.3 nM, the IC90 [1] was 233 nM and the IC50 [2, 17] was 57.6 ± 1.53 nM. For the same molecule, the IC90 [2, 17] was over 333 nM, the IC50 ([3]; CPE, N=3, vehicle control virus) was 11.9 nM and the IC90 ([3]; CPE, N=3) was 79.9 nM. It also gave an IC50 [4, 17] of 47.8 ± 2.96 nM, an IC90 [4, 17] of over 1660 nM and an IC50 [5] of 87.4 nM. The IC90 [5] was 161 nM and the “activity on CPE of the PC786 escape mutant, in words” value [5] was “slightly reduced”.

Work on `Cc1cn2nc([C@@H]3CCCCN3C(=O)c3cc(Cl)ccc3NS(C)(=O)=O)cc2nc1N1CC[C@H](N)C1` [GS-5806, reference compound] yielded an IC50 [2, 18] of 0.45 ± 0.018 nM, an IC90 [2, 18] of 0.93 ± 0.098 nM and an IC50 ([6]; HEp-2, 24 h, MOI 0.02, n = 3, read-out: IC50 at treatment time 24 h postinoculation) of 1.62 nM. It also gave an IC50 ([6]; HEp-2, 24 h, MOI 0.1, n = 3, read-out: IC50 at treatment time 24 h postinoculation) of 2.05 nM, an IC50 ([6]; HEp-2, 24 h, MOI 1.0, n = 3, read-out: IC50 at treatment time 24 h postinoculation) of 11.7 nM and an IC50 ([6]; HEp-2, 48 h, read-out: IC50 at treatment time 48 h postinoculation, MOI 0.02, n = 3) of 6.46 nM. The IC50 ([6]; HEp-2, 48 h, read-out: IC50 at treatment time 48 h postinoculation, MOI 0.1, n = 3) was over 188 nM, the IC50 ([6]; HEp-2, 48 h, read-out: IC50 at treatment time 48 h postinoculation, MOI 1.0, n = 3) was over 188 nM and the IC50 ([6]; HEp-2, 72 h, MOI 0.02, n = 3, read-out: IC50 at treatment time 72 h postinoculation) was over 188 nM. The IC50 ([6]; HEp-2, 72 h, MOI 0.1, n = 3, read-out: IC50 at treatment time 72 h postinoculation) was over 188 nM, the IC50 ([6]; HEp-2, 72 h, MOI 1.0, n = 3, read-out: IC50 at treatment time 72 h postinoculation) was over 188 nM and the IC50 ([6]; HEp-2, MOI 0.02, n = 3, CPE at 144 h, read-out: IC50 at treatment time 0 h postinoculation) was 0.38 nM. The IC50 ([6]; HEp-2, MOI 0.1, n = 3, CPE at 144 h, read-out: IC50 at treatment time 0 h postinoculation) was 0.57 nM, the IC50 ([6]; HEp-2, MOI 1.0, n = 3, CPE at 144 h, read-out: IC50 at treatment time 0 h postinoculation) was 1.05 nM and the IC50 [3, 19] was 0.0018 nM. It also gave an IC90 [3, 19] of 0.0048 nM, an IC50 [4, 18] of 0.17 ± 0.043 nM and an IC90 [4, 18] of over 126 nM. The IC50 [5] was under 0.188 nM, the IC90 [5] was under 0.188 nM and the “activity on CPE of the PC786 escape mutant, in words” value [5] was “remained susceptible”.

`NC(=O)c1ncn([C@@H]2O[C@H](CO)[C@@H](O)[C@H]2O)n1` [Ribavirin] showed an IC50 [2, 18] of over 16400 nM, an IC90 [2, 18] of over 16400 nM and a CC50 [7] of 202000 nM. It also gave an IC50 ([8]; 2 h exposure then 24-h washout before inoculation) of 253000 nM, an IC50 ([8]; nonwashout (sustained presence of drug)) of 6000 nM and an IC50 [4, 18] of 10300 nM. The IC90 [4, 18] was over 16400 nM.

Work on `Nc1ccn([C@@H]2O[C@@](CO)(CCl)[C@@H](O)[C@H]2F)c(=O)n1` [ALS-8112, reference compound] yielded an IC50 [9] of 693 nM, an IC50 [10] of 768 nM and an IC50 [11] of 515 nM. For the same molecule, the IC50 [12] was 398 nM, the IC90 ([1]; luciferase, HEp-2, wild-type L protein) was 831 nM and the IC50 [2, 18] was 455 ± 16 nM. For the same molecule, the IC90 [2, 18] was 1130 nM, the CC50 [13] was over 341000 nM and the IC50 [4, 18] was 647 ± 44.2 nM. It also gave an IC90 [4, 18] of 2130 nM, an IC50 [14] of 3200 nM and an IC50 [15] of 880 nM. For the same molecule, the IC50 [16] was 1500 nM.

Work on `Cc1ccc(CCCO)c(NCc2ccc3nc(NCCCN4CCOCC4)n(Cc4nc(C)ccc4O)c3c2)c1` [TMC35315] yielded an IC50 [2, 17] of 0.78 ± 0.0093 nM, an IC90 [2, 17] of 1.29 ± 0.015 nM and an IC50 [4, 17] of 0.85 ± 0.017 nM. The IC90 [4, 17] was 2.63 ± 0.19 nM.
